How the values were obtained:
FXR LBD = target: T1, FXR LBD (Homo sapiens, UniProt Q96RI1); test: Thermal shift assay, FXR LBD; assay type: binding; details: ligand 20 µM
T1 construct: purchased Sigma SRP2137
T1 sequence (Q96RI1 262-486 limits assumed): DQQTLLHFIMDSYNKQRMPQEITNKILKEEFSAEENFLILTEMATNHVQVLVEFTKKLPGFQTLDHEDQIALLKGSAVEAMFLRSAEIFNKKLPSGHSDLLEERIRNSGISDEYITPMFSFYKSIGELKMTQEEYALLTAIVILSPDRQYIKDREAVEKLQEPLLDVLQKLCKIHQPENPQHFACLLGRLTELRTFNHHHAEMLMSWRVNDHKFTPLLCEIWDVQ

[1] = system: TAA-induced liver fibrosis model; test: TAA-induced liver fibrosis mouse model (8 weeks); assay type: in vivo
Method: To further explore the effects on fibrosis suppression, a thioacetamide (TAA)-induced liver fibrosis model was used. Liver fibrosis was induced by intraperitoneal injection of TAA at a dose of 150 mg/kg, administered three times a week for 8 weeks. […] After the treatment period, the mice were euthanized using CO2. Serum was collected for biochemical analysis, and liver tissues were immediately harvested and frozen in liquid nitrogen for subsequent quantitative reverse transcription polymerase chain reaction (qRT-PCR), western blotting, and biological analysis. Furthermore, some liver samples were fixed in 4% paraformaldehyde buffered to neutral pH for histochemical analysis. For long-term storage, remaining liver samples were stored at -80°C in a deep freezer. […] Liver fibrosis was induced by administering TAA intraperitoneally at a dose of 150 mg/kg three times a week for a duration of […]. […] Upon completion of the treatment period, mice were euthanized using CO2, and serum and liver tissue samples were harvested for subsequent evaluation. Serum samples collected from mice were incubated at room temperature for 20 min before being centrifuged at 3000 rpm for 20 min to separate blood cells and clotting factors. Serum alanine transaminase (ALT) and aspartate aminotransferase (AST) activities were measured using ALT and AST assay kits (Asan Pharm, Seoul, Republic of Korea) to assess liver injury. Blood urea nitrogen (BUN) levels in the serum were analyzed using a commercial assay kit ([…]-BUN, […] Diagnostics, Seoul, Republic of Korea; catalog number 1120171) following the manufacturer's guidelines. Creatinine levels in the serum were quantified using the […] assay kit ([…] Diagnostics; catalog number 1120051) in accordance with the manufacturer's instructions. Liver and kidney tissues were processed to detect histological changes through the following procedures. The tissues were fixed in 4% paraformaldehyde, and paraffin-embedded sections were prepared for H&E staining according to standard procedures. […]

PPARα LBD = target: T2, PPARα LBD (Homo sapiens, UniProt Q07869); test: Thermal shift assay, PPARα LBD; assay type: binding; details: ligand 20 µM
T2 construct: purchased Sigma SRP2054
T2 sequence (Q07869 239-466 limits assumed): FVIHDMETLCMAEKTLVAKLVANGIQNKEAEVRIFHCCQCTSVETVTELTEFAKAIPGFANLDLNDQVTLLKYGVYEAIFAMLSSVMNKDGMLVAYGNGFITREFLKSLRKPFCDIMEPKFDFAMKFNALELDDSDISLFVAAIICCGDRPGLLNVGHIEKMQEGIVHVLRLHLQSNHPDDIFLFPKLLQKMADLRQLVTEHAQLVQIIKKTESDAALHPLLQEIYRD

Melting temperature of FXR LBD (FXR LBD)	Melting temperature of PPARα LBD (PPARα LBD)	Compound	Damaged hepatocytes (H&E) ([1]; TAA mice)	Serum AST level ([1]; TAA mice, oral 3 mg/kg daily, increase still higher than in MHY5396 group)	Protection against fibrosis ([1]; TAA model, MHY5396 versus OCA)
altered	–	CC[C@H]1[C@@H](O)[C@@H]2[C@H](CC[C@]3(C)[C@@H]([C@H](C)CCC(=O)O)CC[C@@H]23)[C@@]2(C)CC[C@@H](O)C[C@@H]12 [OCA, obeticholic acid]	fewer damaged hepatocytes	smaller increase in AST levels than that in the TAA group	protective effects against fibrosis
–	altered	CC(C)(Oc1ccc(C(=O)c2ccc(Cl)cc2)cc1)C(=O)O [fenofibric acid]	–	–	–

Reference: article PMC12554789, “Benzoxazole Derivatives as Potent FXR and PPARα Dual Agonists With Anti‐Fibrotic and Metabolic Regulatory Effects” (MedComm, 2025)
